Entries after “also recorded” stand apart in the source; their conditions may differ.
Key:
[1] = test system: panel of 21 diverse kinases; assay: Kinase selectivity screen, whole panel; format: biochemical, human; conditions: 1.0 μM compound, Km ATP, 21 kinases
Excerpt: The potent GSK-3β inhibitor 16b was next subjected to kinase selectivity assay. A panel of kinases which were structurally related to GSK-3β was used for the GSK-3β selectivity studies[26]^,[37]^,[38]. […] GSK-3α and GSK-3β are known to share a 98% sequence homology at the catalytic site[42]. CDK5 and GSK-3 belong to the CMGC protein kinase family, which shared highly homology with each other[43]^,[44]. CDK5 is known abnormally activated and also responsible for the tau hyperphosphorylation in AD[45]. It was known that Aβ could increase CK2 activity, which in turn accelerated the tau phosphorylation in AD[46]. Therefore, the inhibition of CDK5 and CK2 by 16b may be beneficial for its anti-AD activities.
Figure 3. Effects of compound 16b on the activities of 21 protein kinases in vitro. Protein kinases were of human origin and assayed in the presence of 1.0 μM compound 16b or vehicle (DMSO). The enzymatic activity was measured in the presence of Km ATP. Kinase activities were given as the mean of twice determinations. […]
Compound 16b was evaluated for kinase selectivity at Eurofins Cerep SA (Celle-L’Evescault, France) in enzymatic radioactive assays in a panel of 21 different kinases (including GSK-3β) from diverse families. […] The enzymatic activity was measured in the presence of Km ATP.

[2] = test system: phosphorylation of GSK-3β at Ser9; assay: Western blot of p-GSK-3β (Ser9) in SH-SY5Y cells; format: cell-based, human; conditions: 2.5 h, control 0.33
Excerpt: GSK-3β is activated by phosphorylation at Tyr216 and is inhibited by phosphorylation at Ser9 [48]. As one of the substrates of Akt (protein kinase B), GSK-3 can inhibit Akt[49]. The inhibition of GSK-3β increases the p-Akt expression and activates the PI3K/Akt pathway, and that, in turn, phosphorylates the GSK-3β at the Ser9 site[50]^,[51]. […] As shown in Figure 6(A), LiCl greatly promoted GSK-3β phosphorylation at Ser9 (p-GSK-3β/GAPDH: 0.60 vs 0.33). […] Therefore, in cellular level, compound 16b was confirmed to have a direct effect on GSK-3β.
(§1) Figure 6. (A) The effect of 16b on phosphorylation of GSK-3β at Ser9; (B) the effect of 16b on β-catenin abundance. Protein expressions were detected by immunoblot analysis with a specific antibody. Values are reported as the mean ± SD of three independent experiments. *p < 0.05, **p < 0.01, ***p < 0.001 vs control.
SH-SY5Y cells (1 × 10^6) were seeded in 12-well plates (Corning, Los Altos, MA, USA) and incubated with compound 16b or LiCl at the indicated concentrations for 2.5 h at 37 °C in 5% CO2. At the end of incubation, cells were lysed by addition of ice-cold RIPA buffer containing a protease inhibitor cocktail. The protein quantification was determined using a BCA protein assay kit (Jiangsu KeyGEN BioTECH Co., Ltd., Nanjing, China). Cellular lysates were mixed with an equal volume of SDS (sodium dodecyl sulfate) loading buffer (Jiangsu KeyGEN BioTECH Co., Ltd., Nanjing, China) and separated by electrophoresis (Bio-rad Power Supplies Basic, Shanghai, China) in polyacrylamide gel. Proteins were transferred from acrylamide gels to nitrocellulose membranes and blocked in a blocking buffer (PBS, 5% non-fat milk) for 1.5 to 2 h at 20 °C. […] The blots were washed by TBST for 20 min and detected with ECL chemiluminescent reagent (Jiangsu KeyGEN BioTECH Co., Ltd., Nanjing, China) for 3 min. Pixel intensity was quantitated using gel imaging system (SYNGENE G:BOX/iChemi XR5, ISS, San Diego, CA, US) and Gel-Pro32 software (Media Cybernetics, Bethesda, MD, USA). […]

β-catenin = assay: Western blot of β-catenin abundance in SH-SY5Y cells; format: cell-based, human; conditions: 2.5 h, control 0.41
Excerpt: as §1
GSK-3β is implicated in the Wnt/β-catenin signalling pathway, which plays an important role in neuronal development. GSK-3β, together with adenomatous polyposis coli (APC), Axin, and casein kinase 1 (CK1), form a ploy-protein complex that regulates the hyperphosphorylation of β-catenin. Phospho-β-catenin is recognised by ubiquitin and degraded by proteasomes. Pharmacological inhibition of GSK-3β leads to the activation and stabilisation of β-catenin, subsequently resulting in the accumulation of β-catenin in cytoplasm. The activation of Wnt/β-catenin signalling pathway can promote synaptic growth, alleviate spatial memory impairment and neurodegeneration in Alzheimer’s models. Moreover, β-catenin also plays a pivotal role in cell adhesion complexes. The combination of β-catenin and N-cadherin elevates cell-to-cell interactions which is prerequisite for neuronal differentiation[61]^,[62]. Therefore, we further evaluated the effect of 16b on β-catenin. In agreement with its GSK-3β inhibitory activity on SH-SY5Y cells, 16b increased β-catenin abundance in a dose-dependent manner. […]
SH-SY5Y cells (1 × 10^6) were seeded in 12-well plates (Corning, Los Altos, MA, USA) and incubated with compound 16b or LiCl at the indicated concentrations for 2.5 h at 37 °C in 5% CO2. […] The protein quantification was determined using a BCA protein assay kit (Jiangsu KeyGEN BioTECH Co., Ltd., Nanjing, China). […] The blots were washed by TBST for 20 min and detected with ECL chemiluminescent reagent (Jiangsu KeyGEN BioTECH Co., Ltd., Nanjing, China) for 3 min. Pixel intensity was quantitated using gel imaging system (SYNGENE G:BOX/iChemi XR5, ISS, San Diego, CA, US) and Gel-Pro32 software (Media Cybernetics, Bethesda, MD, USA). […]

Compound: CC(C)C(=O)Nc1n[nH]c2cc(-c3cccnc3)sc12 [Compound 16b, N-(5-(pyridin-3-yl)-1H-thieno[3,2-c]pyrazol-3-yl)isobutyramide]
- kinase selectivity over most of the kinases of the panel [1]: good selectivity; also recorded: accepted kinase selectivity
- p-GSK-3β/GAPDH ratio (Ser9) ([2]; 10 μM): 0.41
- p-GSK-3β/GAPDH ratio (Ser9) ([2]; 20 μM): 0.50
- β-catenin/GADPH ratio (β-catenin; 5 μM): 0.54
- β-catenin/GADPH ratio (β-catenin; 10 μM): 0.64
- β-catenin/GADPH ratio (β-catenin; 20 μM): 0.76

— article PMC9225722, “Synthesis and biological evaluation of thieno[3,2-c]pyrazol-3-amine derivatives as potent glycogen synthase kinase 3β inhibitors for Alzheimer’s disease” (Journal of Enzyme Inhibition and Medicinal Chemistry, 2022)
